Measurements from ChEMBL document CHEMBL5108051, “Improving the Antimicrobial Performance of Amphiphilic Cationic Antimicrobial Peptides Using Glutamic Acid Full-Scan and Positive Charge Compensation Strategies” (J Med Chem, 2022).
≈ marks a conversion by molar mass, not a printed value. Calls of active or inactive are those of the source. The rule behind the calls is not given here. Square brackets hold non-standard residues; d marks the D form. Peptide text beside a SMILES is read from it. ξ: configuration not given here. Ile(3ξ) = CCC(C)[C@H](N)C(=O)O

Key:
Pseudomonas aeruginosa = experiment: Antibacterial activity against Pseudomonas aeruginosa ATCC 27853 assessed as growth inhibition measured after 18 to 24 hrs by CLSI based broth microdilution method; format: functional; settings: time 18-24 hrs
Staphylococcus aureus [1] = experiment: Antibacterial activity against Staphylococcus aureus ATCC 25923 assessed as growth inhibition measured after 18 to 24 hrs by CLSI based broth microdilution method; format: functional; settings: time 18-24 hrs
Staphylococcus aureus [2] = experiment: Antimicrobial activity against Staphylococcus aureus ATCC 25923 assessed as fold increase in MIC in presence of MgCl2; format: functional
Klebsiella pneumoniae = experiment: Antibacterial activity against Klebsiella pneumoniae ATCC 700603 assessed as growth inhibition measured after 18 to 24 hrs by CLSI based broth microdilution method; format: functional; settings: time 18-24 hrs
Escherichia coli [3] = experiment: Antimicrobial activity against Escherichia coli ATCC 25922 in presence of MgCl2; format: functional, organism-based
Staphylococcus aureus [4] = experiment: Antimicrobial activity against Staphylococcus aureus ATCC 25923 assessed as fold increase in MIC in presence of KCl; format: functional
Escherichia coli [5] = experiment: Antimicrobial activity against Escherichia coli ATCC 25922 in presence of KCl; format: functional, organism-based
Escherichia coli [6] = experiment: Antimicrobial activity against Escherichia coli ATCC 25922 in presence of NaCl; format: functional, organism-based
Staphylococcus aureus [7] = experiment: Antimicrobial activity against Staphylococcus aureus ATCC 25923 assessed as increase fold in increase MIC in presence of FeCl3; format: functional
[8] = Cytotoxicity against human Glomerular mesenchymal cell assessed as reduction in cell viability at 0 to 128 uM incubated for 1 hr by Resazurin cell viability kit; format: toxicity, cell-based; settings: glomerular mesenchymal cells, dose 0-128 µM
Escherichia coli [9] = experiment: Antibacterial activity against Escherichia coli ATCC 25922 assessed as growth inhibition measured after 18 to 24 hrs by CLSI based broth microdilution method; format: functional; settings: time 18-24 hrs
Bacillus subtilis = experiment: Antibacterial activity against Bacillus subtilis ATCC 23857 assessed as growth inhibition measured after 18 to 24 hrs by CLSI based broth microdilution method; format: functional; settings: time 18-24 hrs
Erythrocyte = experiment: Hemolytic activity against mouse RBC measured after 1 hrs; format: toxicity, cell-based
Staphylococcus aureus [10] = experiment: Antimicrobial activity against Staphylococcus aureus ATCC 25923 assessed as fold increase in MIC in presence of NaCl; format: functional
Cell membrane [11] = experiment: Induction of cell membrane disruption in Staphylococcus aureus ATCC 25923 assessed as increase in PI uptake measured after 30 to 120 mins by propidium iodide staining based FACS flow cytometry analysis (reference value: 15%); format: subcellular; settings: time 30-120 min
Staphylococcus aureus [12] = experiment: Antimicrobial activity against Staphylococcus aureus ATCC 25923 in presence of NaCl; format: functional, organism-based
Staphylococcus aureus [13] = experiment: Antimicrobial activity against Staphylococcus aureus ATCC 25923 in presence of KCl; format: functional, organism-based
Staphylococcus aureus [14] = experiment: Antibacterial activity against Staphylococcus aureus ATCC 25923 assessed as fold increase in MIC measured after 15 passages by resistance development assay; format: functional
Staphylococcus aureus [15] = experiment: Antimicrobial activity against Staphylococcus aureus ATCC 25923 in presence of FeCl3; format: functional, organism-based
Staphylococcus aureus [16] = experiment: Antimicrobial activity against Staphylococcus aureus ATCC 25923 in presence of MgCl2; format: functional, organism-based
[17] = Stability of compound in serum measured after 1 to 6 hrs by RP-HPLC analysis; format: ADME, cell-free; settings: time 1-6 hrs
Escherichia coli [18] = experiment: Antibacterial activity against Escherichia coli ATCC 25922 assessed as fold increase in MIC measured after 15 passages by resistance development assay relative to control; format: functional
Cell membrane [19] = experiment: Induction of cell membrane disruption in Escherichia coli ATCC 25922 assessed as increase in PI uptake measured after 30 to 120 mins by propidium iodide staining based FACS flow cytometry analysis (reference value: 6.0 %); format: subcellular; settings: time 30-120 min

Row | Compound | MIC (Pseudomonas aeruginosa) | MIC (Staphylococcus aureus [1]) | MIC (Klebsiella pneumoniae) | MIC (Escherichia coli [9]) | MIC (Bacillus subtilis) | MHC10 (Erythrocyte) | also measured
1 | CC(C)C[C@H](NC(=O)[C@H](CC(C)C)NC(=O)[C@H](CCCCN)NC(=O)[C@H](CCC(=O)O)NC(=O)[C@H](CC(C)C)NC(=O)[C@H](CC(C)C)NC(=O)[C@H](CCCCN)NC(=O)[C@H](C)NC(=O)[C@@H](NC(=O)[C@H](CCCCN)NC(=O)[C@@H]1CCCN1C(=O)[C@H](CC(C)C)NC(=O)[C@@H](N)Cc1ccccc1)C(C)C)C(N)=O (H-FLPKVAKLLEKLL-NH2) | 16 µM (≈ 24.2 µg/mL) | 8 µM (≈ 12.1 µg/mL) | 32 µM (≈ 48.4 µg/mL) | 8 µM (≈ 12.1 µg/mL) | 8 µM (≈ 12.1 µg/mL) | > 256 µM | fold change (FC) (Staphylococcus aureus [2]): 2; Activity (Escherichia coli [3]): Active; fold change (FC) (Staphylococcus aureus [4]): 2; Activity (Escherichia coli [5]): Active; Activity (Escherichia coli [6]): Active; fold change (FC) (Staphylococcus aureus [7]): 2; CC50 at 1 h [8]: > 128 µM; fold change (FC) (Staphylococcus aureus [10]): 2
2 | CC(C)C[C@H](NC(=O)[C@H](CC(C)C)NC(=O)[C@H](CCC(=O)O)NC(=O)[C@H](CO)NC(=O)[C@H](CC(C)C)NC(=O)[C@H](CC(C)C)NC(=O)[C@H](CCCCN)NC(=O)[C@H](CCCCN)NC(=O)[C@@H](NC(=O)[C@H](CCCCN)NC(=O)[C@@H]1CCCN1C(=O)[C@H](CC(C)C)NC(=O)[C@@H](N)Cc1ccccc1)C(C)C)C(N)=O (H-FLPKVKKLLSELL-NH2) | 32 µM (≈ 48.9 µg/mL) | 64 µM (≈ 97.7 µg/mL) | 64 µM (≈ 97.7 µg/mL) | 32 µM (≈ 48.9 µg/mL) | 16 µM (≈ 24.4 µg/mL) | > 256 µM | 
3 | CCC(C)[C@H](NC(=O)[C@@H]1CCCN1C(=O)[C@H](CC(C)C)NC(=O)[C@@H](N)Cc1ccccc1)C(=O)N[C@H](C(=O)N[C@@H](C)C(=O)N[C@@H](CCCCN)C(=O)N[C@@H](CC(C)C)C(=O)N[C@@H](CC(C)C)C(=O)N[C@@H](CO)C(=O)N[C@@H](CCCCN)C(=O)N[C@@H](CC(C)C)C(=O)N[C@@H](CC(C)C)C(N)=O)C(C)C (some centres undefined) (H-FLP[Ile(3ξ)]VAKLLSKLL-NH2) | > 128 µM | 8 µM (≈ 11.6 µg/mL) | > 128 µM | > 128 µM | 4 µM (≈ 5.82 µg/mL) | 17.97 µM | 
4 | CCC(C)[C@H](NC(=O)[C@@H]1CCCN1C(=O)[C@H](CC(C)C)NC(=O)[C@@H](N)Cc1ccccc1)C(=O)N[C@H](C(=O)N[C@@H](CCCCN)C(=O)N[C@@H](CCCCN)C(=O)N[C@@H](CC(C)C)C(=O)N[C@@H](CC(C)C)C(=O)N[C@@H](CCC(=O)O)C(=O)N[C@@H](CCCCN)C(=O)N[C@@H](CC(C)C)C(=O)N[C@@H](CC(C)C)C(N)=O)C(C)C (some centres undefined) (H-FLP[Ile(3ξ)]VKKLLEKLL-NH2) | 8 µM (≈ 12.4 µg/mL) | 4 µM (≈ 6.21 µg/mL) | 16 µM (≈ 24.8 µg/mL) | 8 µM (≈ 12.4 µg/mL) | 4 µM (≈ 6.21 µg/mL) | 42.55 µM | 
5 | CCC(C)[C@H](NC(=O)[C@@H]1CCCN1C(=O)[C@H](CC(C)C)NC(=O)[C@@H](N)Cc1ccccc1)C(=O)N[C@H](C(=O)N[C@@H](CCCCN)C(=O)N[C@@H](CCCCN)C(=O)N[C@@H](CC(C)C)C(=O)N[C@@H](CC(C)C)C(=O)N[C@@H](CCCCN)C(=O)N[C@@H](CCC(=O)O)C(=O)N[C@@H](CC(C)C)C(=O)N[C@@H](CC(C)C)C(N)=O)C(C)C (some centres undefined) (H-FLP[Ile(3ξ)]VKKLLKELL-NH2) | 8 µM (≈ 12.4 µg/mL) | 4 µM (≈ 6.21 µg/mL) | 16 µM (≈ 24.8 µg/mL) | 8 µM (≈ 12.4 µg/mL) | 4 µM (≈ 6.21 µg/mL) | 53.73 µM | 
6 | CO[C@H]1/C=C/O[C@@]2(C)Oc3c(C)c(O)c4c(O)c(c(/C=N/N5CCN(C)CC5)c(O)c4c3C2=O)NC(=O)/C(C)=C\C=C\[C@H](C)[C@H](O)[C@@H](C)[C@@H](O)[C@@H](C)[C@H](OC(C)=O)[C@@H]1C [RIFAMPIN] | 32 µM (≈ 26.3 µg/mL) | < 1 µM | 32 µM (≈ 26.3 µg/mL) | 4 µM (≈ 3.29 µg/mL) | < 1 µM |  | Activity (Cell membrane [11]): 3.45%; Activity (Staphylococcus aureus [12]): Active; Activity (Staphylococcus aureus [13]): Active; fold change (FC) (Staphylococcus aureus [14]): 4096; Activity (Staphylococcus aureus [15]): Active; Activity (Staphylococcus aureus [16]): Active; Stability [17]: Stable; fold change (FC) (Escherichia coli [18]): 16; Activity (Cell membrane [19]): 17.4%
7 | GENTAMICIN |  |  |  |  |  |  | fold change (FC) (Staphylococcus aureus [14]): 512; fold change (FC) (Escherichia coli [18]): 128
